Measurements: patent US20200216416A1, “QUINOLINE COMPOUNDS AS INHIBITORS OF TAM AND MET KINASES” (Array BioPharma Inc., priority 2019, published 2020)

What was measured:
[1] = biological target: T1, His-tagged recombinant human AXL cytoplasmic domain (Homo sapiens, UniProt P30530); assay: AXL Enzyme Assay (LanthaScreen Eu Kinase Binding); conditions: averaged IC50; 60-minute incubation at 22° C.; TR-FRET
T1 construct: His-tagged recombinant human AXL cytoplasmic domain
T1 sequence (P30530 473-894 limits assumed): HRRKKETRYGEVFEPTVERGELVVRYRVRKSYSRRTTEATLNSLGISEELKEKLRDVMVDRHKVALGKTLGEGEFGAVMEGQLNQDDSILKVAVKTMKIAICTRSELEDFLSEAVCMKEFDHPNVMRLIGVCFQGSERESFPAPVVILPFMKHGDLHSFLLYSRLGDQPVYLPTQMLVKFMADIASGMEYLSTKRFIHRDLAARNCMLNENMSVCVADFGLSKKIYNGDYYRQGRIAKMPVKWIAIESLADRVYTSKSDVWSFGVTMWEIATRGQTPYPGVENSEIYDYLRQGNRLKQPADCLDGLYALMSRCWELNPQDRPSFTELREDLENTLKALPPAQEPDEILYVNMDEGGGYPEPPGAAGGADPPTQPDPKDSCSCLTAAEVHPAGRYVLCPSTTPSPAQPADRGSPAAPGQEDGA
How it was run: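 TR-FRET binding-displacement format: 20 nM Alexa Fluor Tracer 236, 2 nM biotin-anti-His and 2 nM Eu-streptavidin in 25 mM HEPES pH 7.4, 10 mM MgCl2, 0.01% Triton X-100, 2% DMSO. After 60 min at 22 °C, ratiometric percent of control was fitted to a 4-parameter logistic curve, IC50 taken at 50 POC.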

[2] = biological target: T2, His-tagged recombinant human MER cytoplasmic domain (Homo sapiens, UniProt Q12866); assay: MER Enzyme Assay (LanthaScreen Eu Kinase Binding); conditions: averaged IC50; MER 5 nM; 60-minute incubation at 22° C.; TR-FRET
T2 construct: His-tagged recombinant human MER cytoplasmic domain
T2 sequence (Q12866 527-999 limits assumed): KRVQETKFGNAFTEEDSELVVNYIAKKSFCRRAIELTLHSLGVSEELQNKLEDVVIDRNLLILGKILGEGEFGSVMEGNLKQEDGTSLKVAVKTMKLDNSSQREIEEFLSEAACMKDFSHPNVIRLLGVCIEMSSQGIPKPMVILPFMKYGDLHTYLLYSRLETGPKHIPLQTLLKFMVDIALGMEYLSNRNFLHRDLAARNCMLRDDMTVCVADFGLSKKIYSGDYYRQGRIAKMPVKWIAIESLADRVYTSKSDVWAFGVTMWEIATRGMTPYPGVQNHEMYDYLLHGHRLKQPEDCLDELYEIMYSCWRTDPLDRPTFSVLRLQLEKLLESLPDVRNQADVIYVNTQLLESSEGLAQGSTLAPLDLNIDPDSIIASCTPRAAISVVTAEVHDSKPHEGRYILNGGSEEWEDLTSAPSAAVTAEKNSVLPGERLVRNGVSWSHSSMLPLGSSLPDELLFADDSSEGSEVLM
How it was run: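 TR-FRET binding: 5 nM His-MER cytoplasmic domain with 20 nM Tracer 236, 2 nM biotin-anti-His and 2 nM Eu-streptavidin in pH 7.4 HEPES, 10 mM MgCl2, 2% DMSO, with threefold compound dilutions, 60 min at 22 °C. Percent of control was fit to a 4-parameter logistic, and IC50 was taken at 50 POC.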

[3] = biological target: T3, MET (wt) GST-tagged recombinant human MET kinase domain (Homo sapiens, UniProt P08581); assay: c-Met Enzyme Assay, wild type (LanthaScreen Eu Kinase Binding); conditions: averaged IC50; MET (wt) 10 nM; 60-minute incubation at 22° C.; read-out: SigChem WT IC50
T3 construct: GST-tagged recombinant human MET kinase domain; purchased Signal Chem
Description: (§1) The affinity of compound binding to wild type and mutant human MET kinases was measured using Invitrogen's LanthaScreen™ Eu Kinase Binding technology. Briefly, GST-tagged recombinant human MET kinase domain from Signal Chem (see Table 8 below for concentration in assay) was incubated with 50 nM Alexa-Fluor® Tracer 236 (Invitrogen Cat No. PR9078A) and 2 nM Europium-anti-GST (Invitrogen Cat. No. A15116) along with test compound in a buffer consisting of 25 mM HEPES, pH 7.4, 10 mM MgCl2, 0.01% Triton X-100, 1mM DTT, and 2% DMSO. Compounds were typically prepared in a three-fold serial dilution in DMSO and added to the assay to give the appropriate final concentration. After a 60-minute incubation at 22° C., the reaction was measured using a PerkinElmer EnVision multimode plate reader via TR-FRET dual wavelength detection, and the percent of control (POC) calculated using a ratiometric emission factor. […] The POC values were fit to a 4 parameter logistic curve and the IC50 value is point where the curve crosses 50 POC.

[4] = biological target: T4, human MET kinase del Ex14 (Homo sapiens, UniProt P08581, DEL963-1009); assay: c-Met Enzyme Assay, del Ex14 mutant; format: binding; conditions: averaged IC50; del Ex14 5 nM; 60-minute incubation at 22° C.; read-out: Del14 IC50
T4 construct: GST-tagged recombinant human MET kinase domain; purchased Signal Chem
Description: as §1

[5] = biological target: T5, human MET kinase D1228H (Homo sapiens, UniProt P08581, D1228H); assay: c-Met Enzyme Assay, D1228H mutant; format: binding; conditions: averaged IC50; D1228H 2 nM; 60-minute incubation at 22° C.; read-out: D1228 H IC50
T5 construct: GST-tagged recombinant human MET kinase domain; purchased Signal Chem
Description: as §1

[6] = biological target: T6, human MET kinase Y1230C (Homo sapiens, UniProt P08581, Y1230C); assay: c-Met Enzyme Assay, Y1230C mutant; format: binding; conditions: averaged IC50; Y1230C 2 nM; 60-minute incubation at 22° C.; read-out: Y1230 C IC50
T6 construct: GST-tagged recombinant human MET kinase domain; purchased Signal Chem
Description: as §1

[7] = biological target: T7, human MET kinase Y1230S (Homo sapiens, UniProt P08581, Y1230S); assay: c-Met Enzyme Assay, Y1230S mutant; format: binding; conditions: averaged IC50; Y1230S 8 nM; 60-minute incubation at 22° C.; read-out: Y1230 S IC50
T7 construct: GST-tagged recombinant human MET kinase domain; purchased Signal Chem
Description: as §1

T5 sequence (P08581 1078-1345 D1228H): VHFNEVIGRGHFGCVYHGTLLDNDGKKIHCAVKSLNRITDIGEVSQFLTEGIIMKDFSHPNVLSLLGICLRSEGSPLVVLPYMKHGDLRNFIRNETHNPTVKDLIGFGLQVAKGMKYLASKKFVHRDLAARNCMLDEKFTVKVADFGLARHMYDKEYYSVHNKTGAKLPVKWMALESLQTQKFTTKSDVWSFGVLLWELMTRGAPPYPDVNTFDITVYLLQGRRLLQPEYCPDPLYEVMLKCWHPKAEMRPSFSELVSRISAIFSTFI
T7 sequence (P08581 1078-1345 Y1230S): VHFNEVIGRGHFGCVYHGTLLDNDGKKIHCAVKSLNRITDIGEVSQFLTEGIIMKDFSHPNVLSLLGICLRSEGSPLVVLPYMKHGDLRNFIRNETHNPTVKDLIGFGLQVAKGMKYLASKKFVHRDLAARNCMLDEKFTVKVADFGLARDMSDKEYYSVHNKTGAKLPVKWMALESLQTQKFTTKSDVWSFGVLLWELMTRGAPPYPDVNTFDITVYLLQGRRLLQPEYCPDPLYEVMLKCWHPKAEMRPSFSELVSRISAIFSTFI
T4 sequence (P08581 with tags, fused parts or gaps DEL963-1009 limits assumed): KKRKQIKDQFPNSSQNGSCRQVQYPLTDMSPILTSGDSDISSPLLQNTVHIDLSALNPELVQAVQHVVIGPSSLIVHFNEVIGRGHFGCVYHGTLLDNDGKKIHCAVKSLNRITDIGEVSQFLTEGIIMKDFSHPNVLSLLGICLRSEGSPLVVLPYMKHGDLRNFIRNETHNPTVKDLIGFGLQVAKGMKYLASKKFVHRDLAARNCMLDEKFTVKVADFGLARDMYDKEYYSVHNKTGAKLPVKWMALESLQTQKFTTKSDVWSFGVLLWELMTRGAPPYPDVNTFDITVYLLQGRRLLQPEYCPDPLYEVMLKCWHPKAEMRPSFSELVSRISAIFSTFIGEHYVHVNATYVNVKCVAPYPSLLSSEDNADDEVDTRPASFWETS
T6 sequence (P08581 1078-1345 Y1230C): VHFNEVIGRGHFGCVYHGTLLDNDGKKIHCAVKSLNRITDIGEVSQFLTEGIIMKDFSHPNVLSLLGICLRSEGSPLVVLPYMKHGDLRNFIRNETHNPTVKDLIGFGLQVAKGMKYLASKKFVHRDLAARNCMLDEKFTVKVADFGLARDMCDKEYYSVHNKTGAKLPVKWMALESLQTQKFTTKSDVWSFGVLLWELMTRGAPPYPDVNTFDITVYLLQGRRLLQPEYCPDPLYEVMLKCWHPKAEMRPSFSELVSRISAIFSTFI
T3 sequence (P08581 1078-1345 limits assumed): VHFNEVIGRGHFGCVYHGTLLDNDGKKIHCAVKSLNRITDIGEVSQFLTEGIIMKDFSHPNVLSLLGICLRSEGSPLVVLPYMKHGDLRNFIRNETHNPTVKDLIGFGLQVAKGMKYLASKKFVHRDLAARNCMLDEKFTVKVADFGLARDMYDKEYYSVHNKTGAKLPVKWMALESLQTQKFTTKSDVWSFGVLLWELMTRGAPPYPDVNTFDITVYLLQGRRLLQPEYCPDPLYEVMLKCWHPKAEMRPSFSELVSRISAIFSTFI

Row | SMILES | IC50 [1] | IC50 [2] | IC50 [3] | IC50 [4] | IC50 [5] | IC50 [6] | IC50 [7]
1 | CNC(=O)Cn1cc(C(=O)Nc2ccc(Oc3ccnc4cc(OC)c(OC)cc34)cn2)c(=O)c(-c2ccc(F)cc2)c1 [Example 22] | 2 nM | 3 nM | 1.8 nM | 3.1 nM | 4.2 nM | 2 nM | 2.2 nM
2 | COc1ccc2nccc(Oc3ccc(NC(=O)c4cn(C)cc(-c5ccc(F)cc5)c4=O)nc3)c2c1 [Example 41, 5-(4-fluorophenyl)-N-(5-((6-methoxyquinolin-4yl)oxy)pyridin-2-yl)-1-methyl-4-oxo-1,4-dihydropyridine-3-carboxamide] | 5 nM | 33 nM | 117 nM | 108 nM | 258 nM | 173 nM | 226 nM
3 | CCOc1ccc2nccc(Oc3ccc(NC(=O)c4cn(C(C)C)cc(-c5ccc(F)cc5)c4=O)nc3)c2c1 [Example 51, N-(5-((6-ethoxyquinolin-4-yl)oxy)pyridin-2-yl)-5-(4-fluorophenyl)-1-isopropyl-4-oxo-1,4-dihydropyridine-3-carboxamide] | 5 nM | 14 nM | 22.2 nM | 29.4 nM | 59.5 nM | 61.8 nM | 44 nM
4 | COc1cc2ncc(C#N)c(Oc3ccc(NC(=O)c4cn(C(C)C)cc(-c5ccc(F)cc5)c4=O)nc3)c2cc1OC [Example 57, N-(5-((3-cyano-6,7-dimethoxyquinolin-4-yl)oxy)pyridin-2-yl)-5-(4-fluorophenyl)-1-isopropyl-4-oxo-1,4-dihydropyridine-3-carboxamide] | 12 nM | 29 nM | 297 nM | 305 nM | 532 nM | 526 nM | 514 nM
5 | COc1cc2nccc(Oc3ccc(NC(=O)c4cn(C(C)C)cc(-c5ccc(F)cc5OC)c4=O)nc3)c2cc1OC [Example 32, N-(5-((6,7-dimethoxyquinolin-4yl)oxy)pyridin-2-yl)-5-(4-fluoro-2-methoxyphenyl)-1-isopropyl-4-oxo-1,4-dihydropyridine-3-carboxamide] | 2 nM | 3 nM | 3 nM | 3.2 nM | 10 nM | 6.7 nM | 7.1 nM
6 | COc1cc2nccc(Oc3ccc(NC(=O)c4cn(CCN(C)C)cc(-c5ccc(F)c(F)c5)c4=O)nc3)c2cc1OC [Example 43, 5-(3,4-difluorophenyl)-N-(5-((6,7-dimethoxyquinolin-4-yl)oxy)pyridin-2-yl)-1-] | 2 nM | 5 nM | 1.4 nM | 2.5 nM | 1.6 nM | 1.4 nM | 1.1 nM
7 | CCn1cc(C(=O)Nc2ccc(Oc3ccnc4ccc(OC)cc34)cn2)c(=O)c(-c2ccc(F)cc2)c1 [Example 39, 1-ethyl-5-(4-fluorophenyl)-N-(5-((6-methoxyquinolin-4-yl)oxy)pyridin-2-yl)-4-oxo-1,4-dihydropyridine-3-carboxamide] | 3 nM | 16 nM | 29.4 nM | 25.6 nM | 66.3 nM | 47 nM | 55.3 nM
8 | COc1cc2nccc(Oc3ccc(NC(=O)c4cn(C(C)C)c(C)c(-c5ccc(F)cc5)c4=O)nc3)c2cc1OC [Example 27, N-(5-((6,7-dimethoxyquinolin-4yl)oxy)pyridin-2-yl)-5-(4-fluorophenyl)-1-isopropyl-6-methyl-4-oxo-1,4-dihydropyridine-3-carboxamide] | 1 nM | 2 nM | 1.8 nM | 1.1 nM | 1.1 nM | 1.5 nM | 1.1 nM
9 | COc1cc2nccc(Oc3ccc(NC(=O)c4cn(CC(=O)N5CCCC5)cc(-c5ccc(F)cc5F)c4=O)nc3)c2cc1OC [Example 14] | 2 nM | 12 nM | 7.7 nM | 15.9 nM | 35.4 nM | 5.5 nM | 16.3 nM
10 | CCC(CC)n1cc(C(=O)Nc2ccc(Oc3ccnc4cc(OC)c(OC)cc34)cn2)c(=O)c(-c2ccc(F)cc2F)c1 [Example 16, 5-(2,4-difluorophenyl)-N-(5-((6,7-dimethoxyquinolin-4yl)oxy)pyridin-2-yl)-4-oxo-1-(pentan-3-yl)-1,4-dihydropyridine-3-carboxamide] | 4 nM | 9 nM | 6.1 nM | 4.6 nM | 5.4 nM | 6.1 nM | 6 nM
11 | COc1cc2nccc(Oc3ccc(NC(=O)c4cn(CC(=O)N(C)C)cc(-c5ccc(F)cc5F)c4=O)nc3)c2cc1OC [Example 13, 5-(2,4-difluorophenyl)-N-(5((6,7-dimethoxyquinolin-4-yl)oxy)pyridin-2-yl)-1-(2-(dimethylamino)-2-oxoethyl)-4-oxo-1,4-dihydropyridine-3-carboxamide] | 2 nM | 5 nM | 3.4 nM | 4.9 nM | 4.4 nM | 3.3 nM | 6 nM
12 | COc1cc2nccc(Oc3ccc(NC(=O)c4cn(CC(=O)N(C)C)cc(-c5ccc(Cl)cc5)c4=O)nc3)c2cc1OC [Example 25] | 2 nM | 5 nM | 8.2 nM | 9.5 nM | 22.3 nM | 10.4 nM | 8 nM
13 | COc1cc2nccc(Oc3cnc(NC(=O)c4cn(C(C)C)c(C)c(-c5ccc(F)cc5)c4=O)nc3)c2cc1OC [Example 55, N-(5-((6,7-dimethoxyquinolin-4-yl)oxy)pyrimidin-2-yl)-5-(4-fluorophenyl)-1-isopropyl-6-methyl-4-oxo-1,4-dihydropyridine-3-carboxamide] | 2 nM | 5 nM | 2.8 nM | 3.1 nM | 2.2 nM | 2.2 nM | 2.6 nM
14 | COc1cc2nccc(Oc3ccc(NC(=O)c4cn(C(C)C)cc(-c5ccc(F)cc5C)c4=O)nc3)c2cc1OC [Example 19, N-(5-((6,7-dimethoxyquinolin-4yl)oxy)pyridin-2-yl)-5-(4-fluoro-2-methylphenyl)-1-isopropyl-4-oxo-1,4-dihydropyridine-3-carboxamide] | 2 nM | 2 nM | 1.8 nM | 1.9 nM | 1.6 nM | 2 nM | 1.8 nM
